Laboratory results as given in ChEMBL document CHEMBL1130610, “Synthesis and immunosuppressant activity of pyrazole carboxamides” (Bioorg Med Chem Lett, 1998).
≈ marks a conversion by molar mass, not a printed value. Calls of active or inactive are those of the source. No cut-off for these calls is given here.

Assays:
Rattus norvegicus [1] = species: Rattus norvegicus; test: Immunosuppressant activity in rat using mixed leukocyte response (MLR).; type: functional
Homo sapiens [2] = species: Homo sapiens; test: Immunosuppressant activity using human mixed leukocyte response (HMLR).; type: functional
Homo sapiens [3] = species: Homo sapiens; test: Compound was tested for immunosuppressant activity using human mixed leukocyte response(HMLR) assay.; type: functional
Homo sapiens [4] = species: Homo sapiens; test: Compound was tested for immunosuppressant activity using human mixed leukocyte response(HMLR) at 10 uM; Not active; type: functional
Rattus norvegicus [5] = species: Rattus norvegicus; test: Compound was tested for immunosuppressant activity in rat using mixed leukocyte response(MLR); Not active, < 20 % inhibition at 10 uM; type: functional
Homo sapiens [6] = species: Homo sapiens; test: Compound was tested for immunosuppressant activity using human mixed leukocyte response(HMLR); Not active, < 20 % inhibition at 10 uM; type: functional
[7] = Aqueous solubility at a pH of 7.3.; type: physicochemical; conditions: pH 7.3, read-out: S
[8] = C max value was evaluated; type: ADME, organism-based; conditions: in vivo
Rattus norvegicus [9] = species: Rattus norvegicus; test: Compound was tested for immunosuppressant activity in rat using mixed leukocyte response (MLR).; type: functional
[10] = Half-life value was evaluated; type: ADME
Homo sapiens [11] = species: Homo sapiens; test: Compound was tested for immunosuppressant activity using human mixed leukocyte response (HMLR).; type: functional
Homo sapiens [12] = species: Homo sapiens; test: Compound was tested for immunosuppressant activity using human mixed leukocyte response(HMLR) at a concentration of 10 uM; Not active; type: functional
Rattus norvegicus [13] = species: Rattus norvegicus; test: Compound was tested for immunosuppressant activity in rat using mixed leukocyte response(MLR) at a concentration of 10 uM; Not active; type: functional

Row | SMILES | IC50 (Rattus norvegicus [1]) [nM] | IC50 (Homo sapiens [2]) [nM] | other results
1 | Cc1c(C(=O)Nc2ccc(C(F)(F)F)cc2)cnn1-c1ccccc1 | 650 | 2300 | –
2 | Cc1c(-c2ccc(-c3ccccc3F)cc2)nc2ccc(F)cc2c1C(=O)O [BREQUINAR] | 1600 | 3900 | –
3 | Cc1c(C(=O)Nc2ccc(F)cc2)cnn1-c1ccc(F)cc1 | 610 | – | IC50 (Homo sapiens [3]): 2400 nM
4 | Cc1c(C(=O)Nc2ccc(OC(F)(F)F)cc2)cnn1-c1ccc(F)cc1 | 2600 | 3400 | –
5 | Cc1c(C(=O)Nc2cccc(F)c2)cnn1-c1ccc(F)cc1 | 800 | 3000 | –
6 | Cc1ccc(-n2ncc(C(=O)Nc3ccc(C(F)(F)F)cc3)c2C)cc1 | 1000 | 410 | –
7 | Cc1cc(C)cc(-n2ncc(C(=O)Nc3ccc(C(F)(F)F)cc3)c2C)c1 | 410 | 2200 | –
8 | Cc1cccc(NC(=O)c2cnn(-c3ccc(F)cc3)c2C)c1 | 890 | 5700 | –
9 | Cc1ccccc1NC(=O)c1cnn(-c2ccc(F)cc2)c1C | 110 | 1100 | –
10 | Cc1c(C(=O)NCc2ccc(F)cc2)cnn1-c1ccc(F)cc1 | 330 | – | inhibition at 10 µM (Homo sapiens [4]): < 20%
11 | Cc1c(C(=O)Nc2ccc(C(F)(F)F)cc2)cnn1-c1ccc(Cl)cc1 | 7400 | 410 | –
12 | COc1cccc(-n2ncc(C(=O)Nc3ccc(C(F)(F)F)cc3)c2C)c1 | 2500 | 2500 | –
13 | Cc1cccc(-n2ncc(C(=O)Nc3ccc(C(F)(F)F)cc3)c2C)c1 | 890 | 2500 | –
14 | C/C(Nc1ccc([N+](=O)[O-])cc1)=C(/C#N)C(=O)Nc1ccc(C(F)(F)F)cc1 | – | – | inhibition (Rattus norvegicus [5]): inactive; inhibition (Homo sapiens [6]): inactive
15 | COc1cccc(NC(=O)c2cnn(-c3ccc(F)cc3)c2C)c1 | 3600 | 3700 | –
16 | Cc1c(C(=O)Nc2ccc(C(F)(F)F)cc2)cnn1Cc1ccc(F)cc1 | 2400 | 3600 | –
17 | Cc1c(C(=O)Nc2ccc(C(F)(F)F)cc2)cnn1Cc1ccccc1 | 2700 | 3700 | –
18 | Cc1c(C(=O)Nc2ccc(C(F)(F)F)cc2)cnn1CCc1ccc(F)cc1 | 1700 | 5400 | –
19 | Cc1c(C(=O)Nc2ccccc2F)cnn1-c1ccc(F)cc1 | 5100 | 4000 | –

Row | SMILES | IC50 (Rattus norvegicus [1]) [nM] | IC50 (Homo sapiens [2]) [nM] | other results
20 | Cc1ccccc1-n1ncc(C(=O)Nc2ccc(C(F)(F)F)cc2)c1C | 150 | 1500 | –
21 | Cc1c(C(=O)Nc2ccc(C(F)(F)F)cc2)cnn1-c1ccc(F)cc1 | – | – | solubility [7]: 0.4 µg/mL (≈ 1.1 µM); Cmax [8]: 460 ng/mL; IC50 (Rattus norvegicus [9]): 270 nM; half-life [10]: 822 min; IC50 (Homo sapiens [11]): 850 nM
22 | Cc1c(C(=O)Nc2ccc(C(F)(F)F)cc2)cnn1-c1ccc(F)c(Cl)c1 | 210 | 1300 | –
23 | Cc1c(C(=O)Nc2ccc(C(F)(F)F)cc2)cnn1-c1cccc(Cl)c1Cl | 240 | 1600 | –
24 | Cc1c(C(=O)Nc2ccc(C(F)(F)F)cc2)cnn1-c1cccc(F)c1 | 220 | 3100 | –
25 | Cc1c(C(=O)Nc2ccc(C(F)(F)F)cc2)cnn1-c1ccccc1F | 110 | 1100 | –
26 | Cc1c(C(=O)Nc2cccc(C(F)(F)F)c2)cnn1-c1ccc(F)cc1 | 1100 | 1700 | –
27 | Cc1ccc(NC(=O)c2cnn(-c3ccc(F)cc3)c2C)cc1 | 200 | 540 | –
28 | C/C(Nc1ccccc1)=C(/C#N)C(=O)Nc1ccc(C(F)(F)F)cc1 | – | – | inhibition (Rattus norvegicus [5]): inactive; inhibition (Homo sapiens [6]): inactive
29 | Cc1c(C(=O)NCCc2ccc(F)cc2)cnn1-c1ccc(F)cc1 | 300 | – | inhibition at 10 µM (Homo sapiens [12]): < 20%
30 | C/C(Nc1ccc(F)cc1)=C(/C#N)C(=O)Nc1ccc(C(F)(F)F)cc1 | – | – | inhibition (Rattus norvegicus [5]): inactive; inhibition (Homo sapiens [6]): inactive
31 | Cc1c(C(=O)Nc2ccc(C(F)(F)F)cc2)cnn1-c1ccccc1C(F)(F)F | 260 | 2600 | –
32 | Cc1c(C(=O)Nc2ccc(C(F)(F)F)cc2)cnn1-c1ccc([N+](=O)[O-])cc1 | 2300 | 5700 | –
33 | COc1ccc(-n2ncc(C(=O)Nc3ccc(C(F)(F)F)cc3)c2C)cc1 | 1000 | 340 | –
34 | Cc1c(C(=O)N(CC(=O)O)c2ccc(C(F)(F)F)cc2)cnn1-c1ccc(F)cc1 | 310 | 3200 | solubility [7]: 1530 µg/mL (≈ 3640 µM); Cmax [8]: 4450 ng/mL; half-life [10]: 360 min
35 | Cc1n[nH]cc1C(=O)Nc1ccc(C(F)(F)F)cc1 | – | – | inhibition at 10 µM (Homo sapiens [12]): < 20%; inhibition at 10 µM (Rattus norvegicus [13]): < 20%
36 | Cc1oncc1C(=O)Nc1ccc(C(F)(F)F)cc1 [LEFLUNOMIDE] | 1000 | 5400 | –
37 | CCCCC(CC)NC(=O)c1cnn(-c2ccc(F)cc2)c1C (stereo not given) | 110 | 580 | –
